Data published in patent US11872219B2 (priority 2018, dated 2024).

How the values were obtained:
[1] = tested on: rats (monosodium-iodoacetate model of osteoarthritis); assay: monosodium-iodoacetate model of osteoarthritis: lameness (dynamic weight bearing); settings: for lameness (% RL-% RR), early and late phase: intrathecal, 1 hr post-drug, vs intrathecal saline
[2] = molecular target: human delta receptor (Homo sapiens, UniProt P41143); settings: Ferrari et al. 2017; cited from earlier work
[3] = systemically administered, Hirao et al. 2008, cited from earlier work
[4] = tested on: rats (monosodium-iodoacetate model of osteoarthritis); assay: monosodium-iodoacetate model of osteoarthritis: locomotor activity (total distance travelled)
[5] = tested on: rats (acute thermal nociception); assay: tail flick assay, intrathecal administration; format: in vivo, rat; settings: intrathecal 0.1, 1 or 10 μg on successive days, 1 hr post-drug, vs baseline and saline
Experimental: As a general matter, rats underwent implantation of a catheter for drug delivery into the lumbo-thoracic intrathecal space. A polyurethane catheter was inserted through an incision in the atlanto-occipital membrane and passed caudally to the lumbar level. The distal part of the catheter was exteriorized and connected to a Pinport access port (Instech). Each rat received a standard protocol of anesthesia and antibiotics. Patency checks of the catheter system were performed once weekly following surgeries using 0.02 mL of physiological saline continuing until completion of the dosing period. The Pinport was wiped with alcohol prior to any injection. A minimum of 9-10 days was allowed between surgery and the first dosing in order for the rats to recover fully from surgical trauma. Intrathecal injection of test items always involved the following procedure: test items were administered by slow bolus injection via the Pinport connected to the intrathecal catheter. The dose volume for each animal was fixed at 10 μL and injected slowly over duration of ˜5 minutes. Following dose administration, the catheter was flushed with 20 μL of physiological saline.
A Tail-Flick Analgesia Meter (Columbus Instruments) was used. […] Afterwards, baseline tail-flick latency was measured using a lamp intensity adjusted such that the baseline tail-flick latencies were in the 6-8 second range. […]

Chain of human delta receptor (P41143 whole entry): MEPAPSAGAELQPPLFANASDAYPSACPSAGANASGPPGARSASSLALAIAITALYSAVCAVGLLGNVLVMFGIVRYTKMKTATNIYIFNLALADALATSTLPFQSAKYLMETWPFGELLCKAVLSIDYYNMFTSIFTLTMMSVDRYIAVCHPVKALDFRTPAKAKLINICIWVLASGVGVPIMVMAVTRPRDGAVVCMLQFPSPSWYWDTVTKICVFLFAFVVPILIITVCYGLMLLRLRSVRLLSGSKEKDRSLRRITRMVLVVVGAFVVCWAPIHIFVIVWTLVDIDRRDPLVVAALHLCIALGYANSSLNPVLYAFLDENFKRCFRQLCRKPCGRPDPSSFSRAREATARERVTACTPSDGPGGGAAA

Row | Structure (SMILES) | lameness, last two days of the late phase ([1]; intrathecal 15 μg, vs saline) | lameness (% RL-% RR), early and late phase [1] | activation of the human delta receptor [2] | anxiolytic effects [3] | inhibition of memory or motor function [3] | sedative side effects ([3]; appear only at much higher doses than the effective anxiolytic dose range) | locomotor activity (total distance travelled), early phase ([4]; intrathecal 1 μg, vs intrathecal vehicle) | locomotor activity (total distance travelled), late phase ([4]; intrathecal 0.1, 1 or 10 μg, 0.1 and 10 μg reached statistical significance vs vehicle) | lameness, early phase ([1]; intrathecal 1 μg, Days 2-4, vs saline) | lameness, late phase, dose-response ([1]; intrathecal 0.1, 1 or 10 μg, Days 22-24) | lameness, late phase, 1 and 10 μg ([1]; intrathecal 1 and 10 μg, Days 22-24, vs saline) | tail-flick latency [5]
1 | CN1CC[C@]23c4c5ccc(O)c4O[C@H]2[C@@H](O)C=C[C@H]3[C@H]1C5.O=S(=O)(O)O [morphine sulfate, reference compound] | statistical significance was not quite achieved | significantly reduced lameness levels | – | – | – | – | – | – | – | – | – | –
2 | CC1(N2CCC(n3c([C@@H]4CCCNC4)nc4ccccc43)CC2)CCCCCCC1 [MCOPPB, 1-[1-(1-methylcyclooctyl)-4-piperidinyl]-2-[(3R)-3-piperidinyl]-1H-benzimidazole] | – | significantly reduced lameness levels | only a small amount | potent anxiolytic effects | no inhibition of memory or motor function | only slight sedative side effects | did not change locomotor activity | appeared to restore locomotor activity to the level displayed by both treatment groups during the early phase | sufficient to reduce lameness significantly | dose-related effects | significantly reduced lameness | significantly, and dose-dependently, increased TF latencies
